Data set [1] concerns tubulin. Particulars: cited from earlier work.
For the next data set, the system named is CYP 3A4. Particulars: CYP 3A4 in humans; cited from earlier work.
The subject of data set [2] is microtubules. To be noted: cited from earlier work.
Data set [3] has as its system CSC-enriched (CD133++) HCT-116 human colon cancer cell line. To be noted: cited from earlier work.
Data set [4] deals with MCF7-S human breast carcinoma. To be noted: read-out: IC50 MCF7-S (breast); 72 h drug exposure; cited from earlier work.
Data set [5] concerns NCI/ADR multidrug-resistant human ovarian carcinoma. Particulars: cited from earlier work; for R/S resistance factor: (IC50 NCI/ADR)/(IC50 MCF7-S); for IC50: read-out: IC50 NCI/ADR (ovarian), 72 h drug exposure.
Data set [6] concerns microtubule protein (tubulin). Particulars: microtubule protein 1 mg/mL, 37 °C, Drug 10 μM; cited from earlier work.
Data set [7] has as its system HT-29 human colon cancer cell line. To be noted: read-out: IC50 HT-29 (colon); 72 h drug exposure; cited from earlier work.
Data set [8] concerns PANC-1 human pancreatic cancer cell line. To be noted: read-out: IC50 PANC-1 (pancreatic); 72 h drug exposure; cited from earlier work.
For data set [9], the system named is tubulin. Briefly: Critical concentration of tubulin for microtubule assembly. The format is biochemical. To be noted: from Table 3.
Data set [10] relates to microtubules. Briefly: Binding to microtubules, fluorescent ligand displacement method. To be noted: from Table 4.
Data set [11] relates to CSC-enriched (CD133++) HCT-116 human colon cancer cell line. Briefly: Cytotoxicity against CSC-enriched HCT-116. It is filed as cell-based. Particulars: CSC-enriched HCT-116, from Table 2.

Read-outs that look alike come from different tables or passages of the source.

For the compound `CC(=O)O[C@@]12CO[C@@H]1C[C@H](O)[C@@]1(C)C(=O)[C@H](OC(=O)C3CC3)C3=C(C)[C@@H](OC(=O)[C@H](O)[C@H](C=C(C)C)NC(=O)OC(C)(C)C)C[C@@](O)([C@@H](OC(=O)c4ccccc4)[C@H]21)C3(C)C` [SB-T-1214], in the data set with tubulin [1], the “Critical concentration of tubulin required for microtubule assembly” value was 0.9 ± 0.2 µM. Moreover, the Primary metabolism entry in the data set on CYP 3A4 is recorded as “hydroxylation primarily at the two allylic methyl groups of the 3′-isobutenyl group”. Besides, the “Binding constant with microtubules” value in the data set with microtubules [2] (26 °C) is on record as 12±2 x10^7 M^−1; in the data set with microtubules [2] (37 °C) it was 7±1 x10^7 M^−1. Besides, in data set [3], the IC50 was 0.28 ± 0.1 nM.

On to `CC(=O)O[C@@]12CO[C@@H]1C[C@H](O)[C@@]1(C)C(=O)[C@H](OC(=O)N(C)C)C3=C(C)[C@@H](OC(=O)[C@H](O)[C@H](C=C(C)C)NC(=O)OC(C)(C)C)C[C@@](O)([C@@H](OC(=O)c4ccccc4)C12)C3(C)C` (some centres unmarked) [SB-T-1216], for which the Primary metabolism result in the data set on CYP 3A4 is “hydroxylation primarily at the two allylic methyl groups of the 3′-isobutenyl group”. Also, in [3], the IC50 was 0.83 ± 0.05 nM.

In the case of `CC(=O)O[C@H]1C(=O)[C@@]2(C)C([C@H](OC(=O)c3cccc(N=[N+]=[N-])c3)[C@]3(O)C[C@H](OC(=O)[C@H](O)[C@H](C=C(F)F)NC(=O)OC(C)(C)C)C(C)=C1C3(C)C)[C@]1(OC(C)=O)CO[C@@H]1C[C@@H]2O` (some centres unmarked) [SB-T-12851-3], the IC50 in data set [4] is 0.092 nM. Besides, in [5], the R/S resistance factor is 3.7 and the IC50 is 0.34 nM.

`CC(=O)O[C@H]1C(=O)[C@@]2(C)C([C@H](OC(=O)c3ccccc3)[C@]3(O)C[C@H](OC(=O)[C@H](O)[C@H](C=C(F)F)NC(=O)OC(C)(C)C)C(C)=C1C3(C)C)[C@]1(OC(C)=O)CO[C@@H]1C[C@@H]2O` (some centres unmarked) [SB-T-12851]: the IC50 in [4] is 0.099 nM; in data set [5], 0.95 nM; in data set [7] it was 0.41 nM; in data set [8], 1.19 nM. Besides, the R/S resistance factor in data set [5] is listed as 9.6. The “Rate of GTP-independent tubulin polymerization” value (shortened to “Rate”) in [6] was “much faster than paclitaxel”.

In the case of `COc1cccc(C(=O)O[C@H]2[C@@H]3[C@]4(OC(C)=O)CO[C@@H]4C[C@H](O)[C@@]3(C)C(=O)[C@H](OC(=O)C3CC3)C3=C(C)[C@@H](OC(=O)[C@H](O)[C@H](C=C(F)F)NC(=O)OC(C)(C)C)C[C@]2(O)C3(C)C)c1` [SB-T-12852-1], the IC50 in data set [4] was 0.092 nM. Also, in [5], the R/S resistance factor was 5.2 and the IC50 was 0.48 nM.

Regarding `CC(=O)O[C@@]12CO[C@@H]1C[C@H](O)[C@@]1(C)C(=O)[C@H](OC(=O)C3CC3)C3=C(C)[C@@H](OC(=O)[C@H](O)[C@H](C=C(F)F)NC(=O)OC(C)(C)C)C[C@@](O)([C@@H](OC(=O)c4cccc(F)c4)[C@H]21)C3(C)C` [SB-T-12852-2], the IC50 was 0.071 nM in [4] and 1.72 nM in data set [5]. Moreover, the R/S resistance factor in [5] is given as 24.

For `CC(=O)O[C@@]12CO[C@@H]1C[C@H](O)[C@@]1(C)C(=O)[C@H](OC(=O)C3CC3)C3=C(C)[C@@H](OC(=O)[C@H](O)[C@H](C=C(F)F)NC(=O)OC(C)(C)C)C[C@@](O)([C@@H](OC(=O)c4cccc(N=[N+]=[N-])c4)[C@H]21)C3(C)C` [SB-T-12852-3], the IC50 in data set [4] was 0.092 nM. Moreover, in data set [5], the R/S resistance factor is reported as 4.9 and the IC50 is 0.45 nM.

Regarding `CC(=O)O[C@@]12CO[C@@H]1C[C@H](O)[C@@]1(C)C(=O)[C@H](OC(=O)C3CC3)C3=C(C)[C@@H](OC(=O)[C@H](O)[C@H](C=C(F)F)NC(=O)OC(C)(C)C)C[C@@](O)([C@@H](OC(=O)c4ccccc4)[C@H]21)C3(C)C` [SB-T-12852], the IC50 was 0.12 nM in data set [4], 6 nM in data set [5], 0.85 nM in data set [7] and 5.85 nM in data set [8]. Besides, the R/S resistance factor in data set [5] is on record as 50.

On to `CCC(=O)O[C@H]1C(=O)[C@@]2(C)C([C@H](OC(=O)c3ccccc3)[C@]3(O)C[C@H](OC(=O)[C@H](O)[C@H](C=C(F)F)NC(=O)OC(C)(C)C)C(C)=C1C3(C)C)[C@]1(OC(C)=O)CO[C@@H]1C[C@@H]2O` (some centres unmarked) [SB-T-12853], for which the IC50 was 0.12 nM in data set [4], 1.2 nM in data set [5], 0.34 nM in data set [7] and 0.65 nM in data set [8]. Also, the R/S resistance factor in [5] is given as 10. Also, the “Rate” value in data set [6] is “much faster than paclitaxel”.

Consider `CC(=O)O[C@@]12CO[C@@H]1C[C@H](O)[C@@]1(C)C(=O)[C@H](OC(=O)N(C)C)C3=C(C)[C@@H](OC(=O)[C@H](O)[C@H](C=C(F)F)NC(=O)OC(C)(C)C)C[C@@](O)([C@@H](OC(=O)c4ccccc4)C12)C3(C)C` (some centres unmarked) [SB-T-12854], for which the IC50 is 0.13 nM in data set [4]; 4.3 nM in data set [5]; 0.14 ± 0.05 nM in data set [3]; 0.46 nM in data set [7]; 1.58 nM in data set [8]. In addition, in the data set with tubulin [1], the “Critical concentration of tubulin required for microtubule assembly” value is 0.3 ± 0.1 µM. Further, the R/S resistance factor in [5] was 33. In addition, the “Rate” value in data set [6] is reported as “much faster than paclitaxel”. Also, the “Potency in inducing tubulin assembly relative to SB-T-1214” value with tubulin [9] was “three times higher potency than SB-T-1214”. Also, the “times stronger binding to microtubules than paclitaxel” value in the data set on microtubules [10] is given as “ca. 10 times”. The “Binding constant with microtubules” value with microtubules [2] (26 °C) is 15±3 x10^7 M^−1; with microtubules [2] (37 °C) it was 10±1 x10^7 M^−1. Moreover, the “times higher potency than conventional anticancer drugs” value in data set [11] was 230-33,000 times.

`COC(=O)O[C@H]1C(=O)[C@@]2(C)C([C@H](OC(=O)c3cccc(OC)c3)[C@]3(O)C[C@H](OC(=O)[C@H](O)[C@H](C=C(F)F)NC(=O)OC(C)(C)C)C(C)=C1C3(C)C)[C@]1(OC(C)=O)CO[C@@H]1C[C@@H]2O` (some centres unmarked) [SB-T-12855-1]: the IC50 in [4] is 0.078 nM. In data set [5], the R/S resistance factor was 6.4 and the IC50 was 0.5 nM.

For the compound `COC(=O)O[C@H]1C(=O)[C@@]2(C)C([C@H](OC(=O)c3cccc(N=[N+]=[N-])c3)[C@]3(O)C[C@H](OC(=O)[C@H](O)[C@H](C=C(F)F)NC(=O)OC(C)(C)C)C(C)=C1C3(C)C)[C@]1(OC(C)=O)CO[C@@H]1C[C@@H]2O` (some centres unmarked) [SB-T-12855-3], the IC50 in [4] is 0.078 nM. For the same compound, in [5], the R/S resistance factor was 5.3 and the IC50 was 0.4 nM.

With `COC(=O)O[C@H]1C(=O)[C@@]2(C)C([C@H](OC(=O)c3cccc(Cl)c3)[C@]3(O)C[C@H](OC(=O)[C@H](O)[C@H](C=C(F)F)NC(=O)OC(C)(C)C)C(C)=C1C3(C)C)[C@]1(OC(C)=O)CO[C@@H]1C[C@@H]2O` (some centres unmarked) [SB-T-12855-4], the IC50 in data set [4] is 0.099 nM. Besides, in data set [5], the R/S resistance factor is recorded as 12 and the IC50 was 1.16 nM.

Turning to `N.N.[Cl][Pt][Cl]` [cisplatin], in data set [3], the IC50 was 4540 nM.

With `COc1cccc2c1C(=O)c1c(O)c3c(c(O)c1C2=O)C[C@@](O)(C(=O)CO)C[C@@H]3O[C@H]1C[C@H](N)[C@H](O)[C@H](C)O1` [doxorubicin], the IC50 in [3] is 78 ± 28.2 nM.

As for `CN(Cc1cnc2nc(N)nc(N)c2n1)c1ccc(C(=O)N[C@@H](CCC(=O)O)C(=O)O)cc1` [methotrexate], the IC50 in data set [3] is 32.7 ± 11.2 nM.

On to `CC(=O)O[C@H]1C(=O)[C@@]2(C)[C@H]([C@H](OC(=O)c3ccccc3)[C@]3(O)C[C@H](OC(=O)[C@H](O)[C@@H](NC(=O)c4ccccc4)c4ccccc4)C(C)=C1C3(C)C)[C@]1(OC(C)=O)CO[C@@H]1C[C@@H]2O` [paclitaxel, reference compound], for which the IC50 was 1.2 nM in [4]; 300 nM in [5]; 33.8 ± 3.33 nM in [3]; 3.6 nM in [7]; 25.7 nM in data set [8]. Moreover, the R/S resistance factor in [5] is given as 250.

Consider `CC[C@@]1(O)C(=O)OCc2c1cc1n(c2=O)Cc2cc3c(CN(C)C)c(O)ccc3nc2-1` [topotecan], for which the IC50 in [3] was 451 ± 12 nM.

The values are drawn from PMC5560435 (Journal of fluorine chemistry, 2017).
